In patent US10023590B2, “Substituted pyridine compounds having herbicidal activity” (BASF SE, priority 2014, dated 2018):
Where two headings read alike, the source gives them in different places.

Tests used:
Assay type in all cases: in vivo
Stellaria media = test: Greenhouse post-emergence herbicidal activity, STEME; conditions: scale 0 to 100
Text: (§1) The culture containers used were plastic flowerpots containing loamy sand with approximately 3.0% of humus as the substrate. The seeds of the test plants were sown separately for each species.
(§2) For the post-emergence treatment, the test plants were first grown to a height of 3 to 15 cm, depending on the plant habit, and only then treated with the active ingredients which had been suspended or emulsified in water. For this purpose, the test plants were either sown directly and grown in the same containers, or they were first grown separately as seedlings and transplanted into the test containers a few days prior to treatment.
(§3) Depending on the species, the plants were kept at 10-25° C. or 20-35° C., respectively.
(§4) The test period extended over 2 to 4 weeks. During this time, the plants were tended, and their response to the individual treatments was evaluated.
(§5) Evaluation was carried out using a scale from 0 to 100. 100 means no emergence of the plants, or complete destruction of at least the aerial moieties, and 0 means no damage, or normal course of growth. A good herbicidal activity is given at values of at least 70 and a very good herbicidal activity is given at values of at least 85.

Abutilon theophrasti = test: Greenhouse post-emergence herbicidal activity, ABUTH; conditions: for pest or weed control at 1000 g/ha: 1 kg/ha
Text: as §1, §2, §3, §4, §5

Polygonum persicaria = test: Greenhouse post-emergence herbicidal activity, POLPE; conditions: 0.031 kg/ha, scale 0 to 100
Text: as §1, §2, §3, §4, §5

Zea mays = test: Greenhouse post-emergence herbicidal activity on crop ZEAMX (corn, maize); parameters: key: 0 = no damage/normal growth, 100 = no emergence or complete destruction; conditions: ZEAMX (corn, crop), scale 0 to 100
Summary of the method: (§6)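 Post-emergence greenhouse test: plants in loamy sand (~3.0% humus) grown to 3-15 cm, then treated with active ingredient suspended or emulsified in water. Kept at 10-25° C or 20-35° C depending on species for 2 to 4 weeks; damage scored 0 (none) to 100 (complete destruction of aerial parts).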

Brachiaria decumbens = test: Greenhouse post-emergence herbicidal activity, BRADC; conditions: 0.125 kg/ha, scale 0 to 100
Text: as §1, §2, §3, §4, §5

Amaranthus retroflexus = test: Greenhouse post-emergence herbicidal activity, AMARE; conditions: for pest or weed control at 31 g/ha: 0.031 kg/ha; for pest or weed control at 63 g/ha: 0.063 kg/ha; for pest or weed control at 125 g/ha: 0.125 kg/ha; for pest or weed control at 1000 g/ha: 1 kg/ha
Summary of the method: as §6

Echinocloa crus-galli = test: Greenhouse post-emergence herbicidal activity, ECHCG; conditions: Echinochloa crus-galli; for pest or weed control at 125 g/ha: 0.125 kg/ha; for pest or weed control at 1000 g/ha: 1 kg/ha
Summary of the method: as §6

Capsella bursa-pastoris = test: Greenhouse post-emergence herbicidal activity, CAPBP; conditions: scale 0 to 100
Text: as §1, §2, §3, §4, §5

Kochia scoparia = test: Greenhouse post-emergence herbicidal activity, KCHSC; conditions: scale 0 to 100
Text: as §1, §2, §3, §4, §5

Cirsium arvense = test: Greenhouse post-emergence herbicidal activity, CIRAR; conditions: for pest or weed control at 31 g/ha: 0.031 kg/ha
Text: as §1, §2, §3, §4, §5

Eriochloa villosa = test: Greenhouse post-emergence herbicidal activity, ERBVI; conditions: scale 0 to 100
Text: as §1, §2, §3, §4, §5

Chenopodium album = test: Greenhouse post-emergence herbicidal activity, CHEAL; conditions: scale 0 to 100; for pest or weed control at 31 g/ha: 0.031 kg/ha; for pest or weed control at 63 g/ha: 0.063 kg/ha; for pest or weed control at 125 g/ha: 0.125 kg/ha
Summary of the method: as §6

Setaria viridis = test: Greenhouse post-emergence herbicidal activity, SETVI; conditions: 2 kg/ha, scale 0 to 100
Text: as §1, §2, §3, §4, §5

Brachiaria deflexa = test: Greenhouse post-emergence herbicidal activity, BRADE; conditions: 0.031 kg/ha, scale 0 to 100
Text: as §1, §2, §3, §4, §5

Commelina benghalensis = test: Greenhouse post-emergence herbicidal activity, COMBE; conditions: 0.125 kg/ha, scale 0 to 100
Text: as §1, §2, §3, §4, §5

Oryza sativa = test: Greenhouse post-emergence herbicidal activity on crop ORYSA (rice); conditions: ORYSA (rice, crop), scale 0 to 100
Summary of the method: as §6

Ipomoea hederacea = test: Greenhouse post-emergence herbicidal activity, IPOHE; conditions: scale 0 to 100
Text: as §1, §2, §3, §4, §5

Ambrosia artemisiifolia = test: Greenhouse post-emergence herbicidal activity, AMBEL; conditions: scale 0 to 100
Text: as §1, §2, §3, §4, §5

Veronica arvensis = test: Greenhouse post-emergence herbicidal activity, VERAR; conditions: scale 0 to 100
Text: as §1, §2, §3, §4, §5

Sesbania herbacea = test: Greenhouse post-emergence herbicidal activity, SEBEX; conditions: 0.125 kg/ha, scale 0 to 100
Text: as §1, §2, §3, §4, §5

Setaria faberi = test: Greenhouse post-emergence herbicidal activity, SETFA; conditions: scale 0 to 100
Text: as §1, §2, §3, §4, §5

Polygonum aviculare = test: Greenhouse post-emergence herbicidal activity, POLAV; conditions: 0.25 kg/ha, scale 0 to 100
Text: as §1, §2, §3, §4, §5

Brachiaria plantaginea = test: Greenhouse post-emergence herbicidal activity, BRAPL; conditions: scale 0 to 100
Text: as §1, §2, §3, §4, §5

Panicum miliaceum = test: Greenhouse post-emergence herbicidal activity, PANMI; conditions: 0.031 kg/ha, scale 0 to 100
Text: as §1, §2, §3, §4, §5

[1] = ABUTH, 2 kg/ha, scale 0 to 100, read-out: Herbicidal activity
[2] = ECHCG, 2 kg/ha, scale 0 to 100, read-out: Herbicidal activity
[3] = AMARE, 2 kg/ha, scale 0 to 100, read-out: Herbicidal activity
[4] = CIRAR, 0.063 kg/ha, scale 0 to 100, read-out: Herbicidal activity

Compound | Herbicidal activity (Zea mays; 0.063 kg/ha) | Herbicidal activity (Capsella bursa-pastoris; 0.125 kg/ha) | Herbicidal activity (Zea mays; 0.031 kg/ha) | Herbicidal activity (Zea mays; 0.125 kg/ha) | pest or weed control at 31 g/ha (Chenopodium album) | pest or weed control at 31 g/ha (Amaranthus retroflexus; AMARE, scale 0 to 100) | pest or weed control at 63 g/ha (Amaranthus retroflexus; AMARE, scale 0 to 100) | pest or weed control at 125 g/ha (Amaranthus retroflexus; AMARE, scale 0 to 100) | pest or weed control at 2000 g/ha (Echinocloa crus-galli; [2]) | Herbicidal activity (Oryza sativa; 0.125 kg/ha) | pest or weed control at 63 g/ha (Chenopodium album) | pest or weed control at 125 g/ha (Chenopodium album) | pest or weed control at 31 g/ha (Cirsium arvense; CIRAR, scale 0 to 100) | pest or weed control at 63 g/ha (Cirsium arvense; [4]) | Herbicidal activity (Oryza sativa; 0.031 kg/ha) | Herbicidal activity (Oryza sativa; 0.063 kg/ha) | also measured
CN(c1c(Cl)ccc(C2=C(O)c3ncccc3C(C)(C)S2(=O)=O)c1Cl)S(C)(=O)=O [I-2, N-[2,6-dichloro-3-(8-hydroxy-5,5-dimethyl-6,6-dioxo-thiopyrano[4,3-b]pyridin-7-yl)phenyl]-N-methyl-methanesulfonamide] | 5 | 100 |  |  |  |  |  |  |  |  |  |  |  |  |  |  | Herbicidal activity (Stellaria media; 0.031 kg/ha): 100; Herbicidal activity (Stellaria media; 0.063 kg/ha): 100; pest or weed control at 2000 g/ha (Abutilon theophrasti; read-out: Herbicidal activity): 100%; Herbicidal activity (Polygonum persicaria): 98; Herbicidal activity (Brachiaria decumbens): 100; pest or weed control at 2000 g/ha (Amaranthus retroflexus; read-out: Herbicidal activity): 100%; pest or weed control at 2000 g/ha (Echinocloa crus-galli; read-out: Herbicidal activity): 100%; Herbicidal activity (Kochia scoparia; 0.031 kg/ha): 95; Herbicidal activity (Kochia scoparia; 0.063 kg/ha): 98; Herbicidal activity (Kochia scoparia; 0.125 kg/ha): 100; pest or weed control at 63 g/ha (Cirsium arvense; read-out: Herbicidal activity): 98%
CCN(c1c(Cl)ccc(C2=C(O)c3ncccc3C(C)(C)S2(=O)=O)c1Cl)S(C)(=O)=O [I-9, N-[2,6-dichloro-3-(8-hydroxy-5,5-dimethyl-6,6-dioxo-thiopyrano[4,3-b]pyridin-7-yl)phenyl]-N-ethyl-methanesulfonamide] | 10 |  | 5 | 50 | 98% | 98% | 98% | 98% | 100% |  |  |  |  |  |  |  | Herbicidal activity (Eriochloa villosa; 0.063 kg/ha): 98; pest or weed control at 2000 g/ha (Abutilon theophrasti; [1]): 98%; Herbicidal activity (Setaria viridis): 100; pest or weed control at 125 g/ha (Echinocloa crus-galli; ECHCG, scale 0 to 100): 98%; Herbicidal activity (Brachiaria deflexa): 100; Herbicidal activity (Kochia scoparia; 0.063 kg/ha): 100; pest or weed control at 125 g/ha (Cirsium arvense; CIRAR, 0.125 kg/ha, scale 0 to 100): 100%
CC(C)N(c1c(Cl)ccc(C2=C(O)c3ncccc3C(C)(C)S2(=O)=O)c1Cl)S(C)(=O)=O [I-11, N-[2,6-dichloro-3-(8-hydroxy-5,5-dimethyl-6,6-dioxo-thiopyrano[4,3-b]pyridin-7-yl)phenyl]-N-isopropyl-methanesulfonamide] |  | 100 | 0 |  | 98% |  |  |  | 100% | 20 | 98% | 100% | 90% | 95% |  |  | Herbicidal activity (Commelina benghalensis): 100; pest or weed control at 2000 g/ha (Amaranthus retroflexus; [3]): 100%; Herbicidal activity (Setaria viridis): 100; Herbicidal activity (Capsella bursa-pastoris; 0.031 kg/ha): 98; Herbicidal activity (Capsella bursa-pastoris; 0.063 kg/ha): 100
CN(c1cccc(C2=C(OC(=O)C(C)(C)C)c3ncccc3C(C)(C)S2(=O)=O)c1Cl)S(C)(=O)=O [I-16, [7-[2-chloro-3-[methyl(methylsulfonyl)amino]phenyl]-5,5-dimethyl-6,6-dioxo-thiopyrano[4,3-b]pyridin-8-yl] 2,2-dimethylpropanoate] | 0 |  | 0 | 0 | 95% | 75% |  | 90% |  | 0 | 98% | 98% |  | 85% | 0 | 0 | Herbicidal activity (Ipomoea hederacea; 0.031 kg/ha): 70; Herbicidal activity (Ambrosia artemisiifolia; 0.063 kg/ha): 100; Herbicidal activity (Ambrosia artemisiifolia; 0.125 kg/ha): 100; Herbicidal activity (Ambrosia artemisiifolia; 0.25 kg/ha): 100; Herbicidal activity (Oryza sativa; 0.25 kg/ha): 0; pest or weed control at 250 g/ha (Chenopodium album; 0.25 kg/ha): 100%; Herbicidal activity (Veronica arvensis; 0.25 kg/ha): 100
CN(C)S(=O)(=O)Oc1c(Cl)ccc(C2=C(O)c3ncccc3C(C)(C)S2(=O)=O)c1Cl [I-23] | 0 |  | 0 | 15 | 85% |  | 70% |  |  | 0 | 95% | 98% | 75% | 80% | 0 | 0 | Herbicidal activity (Ipomoea hederacea; 0.125 kg/ha): 95; pest or weed control at 1000 g/ha (Abutilon theophrasti; ABUTH, scale 0 to 100): 80%; Herbicidal activity (Sesbania herbacea): 98; pest or weed control at 1000 g/ha (Amaranthus retroflexus; AMARE, scale 0 to 100): 100%; pest or weed control at 1000 g/ha (Echinocloa crus-galli; ECHCG, scale 0 to 100): 95%
CC1(C)c2cccnc2C(O)=C(c2ccc(Cl)c(N(C3CC3)S(C)(=O)=O)c2Cl)S1(=O)=O [I-25, N-cyclopropyl-N-[2,6-dichloro-3-(8-hydroxy-5,5-dimethyl-6,6-dioxo-thiopyrano[4,3-b]pyridin-7-yl)phenyl]methanesulfonamide] |  | 95 | 5 | 20 |  | 95% | 98% | 98% |  |  | 95% |  | 95% |  |  | 35 | Herbicidal activity (Ambrosia artemisiifolia; 0.25 kg/ha): 100; Herbicidal activity (Setaria faberi; 0.031 kg/ha): 95; Herbicidal activity (Setaria faberi; 0.063 kg/ha): 95; Herbicidal activity (Setaria faberi; 0.125 kg/ha): 95; Herbicidal activity (Oryza sativa; 0.25 kg/ha): 35; Herbicidal activity (Polygonum aviculare): 100; pest or weed control at 250 g/ha (Amaranthus retroflexus; AMARE, 0.25 kg/ha, scale 0 to 100): 98%
Cc1c(C2=C(O)c3ncccc3CS2(=O)=O)ccc(Cl)c1N(C)S(C)(=O)=O [I-26, N-[6-chloro-3-(8-hydroxy-6,6-dioxo-5H-thiopyrano[4,3-b]pyridin-7-yl)-2-methyl-phenyl]-N-methyl-methanesulfonamide] | 15 |  |  | 15 |  |  | 85% | 90% | 100% | 45 |  | 98% |  |  |  |  | Herbicidal activity (Eriochloa villosa; 0.031 kg/ha): 90; Herbicidal activity (Eriochloa villosa; 0.063 kg/ha): 95; Herbicidal activity (Eriochloa villosa; 0.125 kg/ha): 95; pest or weed control at 2000 g/ha (Abutilon theophrasti; [1]): 100%; Herbicidal activity (Brachiaria plantaginea; 0.031 kg/ha): 90; Herbicidal activity (Brachiaria plantaginea; 0.063 kg/ha): 90; pest or weed control at 2000 g/ha (Amaranthus retroflexus; [3]): 100%; Herbicidal activity (Veronica arvensis; 0.031 kg/ha): 90
CN(c1c(Cl)ccc(C2=C(O)c3ncccc3CS2(=O)=O)c1Cl)S(=O)(=O)C1CC1 [I-27, N-[2,6-dichloro-3-(8-hydroxy-6,6-dioxo-5H-thiopyrano[4,3-b]pyridin-7-yl)phenyl]-N-methyl-cyclopropanesulfonamide] | 20 |  | 15 |  | 100% |  |  |  |  |  | 100% | 100% |  |  | 40 |  | pest or weed control at 125 g/ha (Abutilon theophrasti; ABUTH, 0.125 kg/ha, scale 0 to 100): 80%; pest or weed control at 1000 g/ha (Abutilon theophrasti; ABUTH, scale 0 to 100): 95%; Herbicidal activity (Ambrosia artemisiifolia; 0.031 kg/ha): 70; Herbicidal activity (Ambrosia artemisiifolia; 0.063 kg/ha): 75; Herbicidal activity (Panicum miliaceum): 75; pest or weed control at 1000 g/ha (Amaranthus retroflexus; AMARE, scale 0 to 100): 100%; pest or weed control at 63 g/ha (Echinocloa crus-galli; ECHCG, 0.063 kg/ha, scale 0 to 100): 98%; pest or weed control at 125 g/ha (Echinocloa crus-galli; ECHCG, scale 0 to 100): 98%; pest or weed control at 1000 g/ha (Echinocloa crus-galli; ECHCG, scale 0 to 100): 98%
